Data as given in PMC4549042, “Targeting procaspase-3 with WF-208, a novel PAC-1 derivative, causes selective cancer cell apoptosis” (Journal of Cellular and Molecular Medicine, 2015).
Like-named read-outs stand apart in the source and are kept apart here.

Tests used:
rh-procaspase-3 = target: T1, rh-procaspase-3 (Homo sapiens, UniProt P42574); experiment: Assay of zinc inhibition of procaspase-3 activation; assay type: biochemical; settings: PC3 + 5 μM ZnSO4; read-out: EC50 of procaspase-3 activation in zinc-containing buffer
T1 construct: purchased R&D System (Minneapolis, USA)
T1 sequence (P42574 1-277): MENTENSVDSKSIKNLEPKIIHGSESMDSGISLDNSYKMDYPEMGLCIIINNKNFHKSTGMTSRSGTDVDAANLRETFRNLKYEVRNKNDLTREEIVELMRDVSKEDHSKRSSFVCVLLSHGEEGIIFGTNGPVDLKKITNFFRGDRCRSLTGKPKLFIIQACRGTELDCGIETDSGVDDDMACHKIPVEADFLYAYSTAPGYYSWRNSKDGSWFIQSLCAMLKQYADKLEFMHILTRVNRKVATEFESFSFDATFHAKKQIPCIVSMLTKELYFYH
Description: HEPES buffer [with 50 mM HEPES and 300 mM NaCl (pH 7.4)] was treated with Chelex resin to remove trace bivalent cations (including zinc ion). ZnSO4 and different concentration PAC-1 or WF-208 was added to procaspase-3 in HEPES to yield a final concentration of 0.5 μM procaspase-3. After 12 hrs of incubation at 37°C, Ac-DEVD-pNA in buffer [50 mM Hepes (pH 7.4), 100 mM NaCl, 10 mM DTT, 0.1 mM EDTA disodium salt, 0.10% Chaps, 10% glycerol] was added. The final concentration Ac-DEVD-pNA is 0.4 μM. Then the plate was read absorbance at 405 nm in kinetic mode for 10 min. On the other hand, after various time of incubation at 37°C, western blotting was used to detect the cleavage of procaspase-3 [13],[14].

[1] = test system: human malignant cell lines; experiment: MTT cytotoxicity in fifteen human malignant cell lines; assay type: cell-based; settings: for IC50: Homo sapiens, MTT, 72 hrs
Excerpt: Human malignant cell lines, A549, Colo-205, DU145, NCI-H226, Hep-3B, Hep-G2, K562, MCF-7, U-87, GBC-SD, MDA-MB-435S, PC-3, U-937, HL60, SH-SY5Y and human normal cell lines, MCF-10A and L-02, HUVEC were obtained from the American Type Culture Collection (Manassas, VA, USA) and National Center for Medical Culture Collection (Shanghai, China). They were routinely cultured in RPMI 1640, DMEM or DMEM/F12 (Gibco, New York, USA) supplemented with 10% foetal bovine serum (Gibco, New York, USA) and maintained at 37°C in a humidified incubator with 5% CO2.
The cell viability effects of the tested compounds were determined by MTT assay. Cells (1 × 10^4 cells/100 μl/well) were seeded into 96-well culture plates. After overnight incubation, cells were treated with various concentrations of compounds for 72 hrs. Subsequently, 10 μl MTT solution (2.5 mg/ml in PBS) was added to each well, than the cells were incubated for an additional 3–4 hrs at 37°C. After centrifugation (200 × g, 10 min.), the medium with MTT was aspirated, followed by the addition of 100 μl DMSO. The optical density of each well was measured at 570 nm with a Biotek Synergy TM HT Reader.

HL-60 cells = experiment: Immunofluorescence of cleaved caspase-3; assay type: cell-based, human; settings: 10 μM, 24 hrs
Description: HL-60 cells were treated with the 50 μM of PAC-1 and 10 μM WF-208 for 0.5, 1, 3, 6, 12 and 24 hrs. After such treatment, cells were fixed in 4% paraformaldehyde for 15 min., washed with PBS. Subsequently, cells were blocked with 10% bovine serum albumin (BSA) and Triton X-100 for 1 hr at room temperature and incubated at 4°C overnight with anti-cleaved caspase-3 rabbit mAb (1:100) diluted in 1% BSA. After three times of washing with PBS, cells were incubated with secondary antibody (FITC-conjugated goat anti-rabbit IgG, 1:200) for 1 hr at room temperature. Hoechst 33342 was used as a double staining for the nucleus. After washing with PBS, digital images of the cells captured under with ImageXpress 5000 (Molecular Devices, Sunnyvale, CA, USA). The images were quantified and analysed by using MetaXpress software (Molecular Devices). Cleaved caspase-3 level was expressed as the percentage of positively FITC-stained cells.

[2] = test system: HL-60 and U-937 cell lines; experiment: Western blot of Bcl-2 family and IAP proteins in HL-60 and U-937; assay type: cell-based, human; settings: various concentrations, 24 hrs
Description: Approximately 1 × 10^7 HL-60 cells were gathered after pre-treatment with PAC-1 and WF-208 as previously described. The tumour tissue protein was purified according to the reported methods. Western blotting was performed as previously described. All antibodies were purchased from Cell Signaling Technology. In brief, an equal amount of total protein extracts from cultured cells or tissues were fractionated by 10–15% SDS-PAGE and electrically transferred onto polyvinylidene difluoride (PVDF) membranes. Different primary antibodies and corresponding horseradish peroxidase-conjugated secondary antibodies were used to detect the proteins. The bound secondary antibodies on the PVDF membrane were reacted with ECL™ Western Blotting Reagents detection reagents (Thermo Fisher, Rockford, USA) and exposed to X-ray films. Results were normalized to the internal control β-actin.

XIAP and survivin mRNA = experiment: Quantitative PCR of XIAP and survivin mRNA; assay type: cell-based, human; settings: real-time PCR, different concentrations
Description: About 1 × 10^6 cells were gathered after pre-treatment with PAC-1 or WF-208 as described previously. Total RNA was isolated using RNeasy Mini Kit (Qiagen, Duesseldorf, Germany) as described by the product’s instruction. One microgram of RNA was reversely transcribed with ReverAid First Stand cDNA Sythesis Kit (Thermo Fisher, Rockford, USA). For quantitative PCR, analysis was carried out by using iQ SYBR Green Supermix (Bio-Rad, West Berkeley, USA) and the CFX96 RT-PCR Detection System (Bio-Rad) as instructed by the manufacturer. Primers were GAPDH reverse primer 5′-[…]-3′ and forward primer 5′-TTGCCGACAGGATGCAGAA-3′; XIAP reverse primer 5′-TTGCCGACAGGATGCAGAA-3′ and forward primer 5′-[…]-3′; Survivin reverse primer 5′-GGAAACTGCGGAGAAAGTG-3′ and forward primer 5′-TAAACCCTGGAAGTGGTGC-3′. The PCR cycle started with 5 min. at 95°C, followed by 35 cycles of 3 steps (30 sec. at 95°C, 25 sec. at 56°C, 20 sec. at 72°C). The result was calculated as 2^−ΔΔCt of real-time fluorescence intensity.

O=C(CN1CCN(Cc2nc(-c3ccc(COc4ccc(Cl)cc4)cc3)no2)CC1)N/N=C/c1ccc(OCc2csc(Cc3ccc4c(c3)OCO4)n2)cc1O [C2]
EC50 (rh-procaspase-3): 2490 nM
IC50 ([1]; range over the cell lines, read-out: IC50 values against tumour cells): 80 to 12800 nM
IC50 ([1]; read-out: overall mean IC50 value in the fifteen malignant cell lines): 1660 nM
fold increase of cytotoxicity (mean IC50) compared with PAC-1 ([1]; fifteen malignant cell lines): ~20 fold
cells with procaspase-3 cleaved (HL-60 cells): more than 60%
expression of Bcl-2 family members Bcl-2, Bcl-xl, Bax and BID [2]: not changed
expression of XIAP and survivin [2]: significantly down-regulated
XIAP and survivin mRNA (XIAP and survivin mRNA): failed to change
